Experimental data reported in PubChem BioAssay (NCI).
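Five compound concentrations were applied to cells in 96-well plates for 48 hours; endpoints were derived by simple linear interpolation of the resulting dose-response curve. GI50 = concentration required for 50% inhibition of growth. TGI: total growth inhibition.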

What was measured:
Experiment in all cases: DTP human tumour cell line panel, 48 h
786-0 renal = tested on: 786-0 renal
T-47D breast = tested on: T-47D breast
MOLT-4 leukemia = tested on: MOLT-4 leukemia
HCT-15 colon = tested on: HCT-15 colon
CCRF-CEM leukemia = tested on: CCRF-CEM leukemia
SW-620 colon = tested on: SW-620 colon
COLO 205 colon = tested on: COLO 205 colon
A549 NSCLC = tested on: A549 NSCLC
RXF 393 renal = tested on: RXF 393 renal
RPMI-8226 leukemia = tested on: RPMI-8226 leukemia
MCF7 breast = tested on: MCF7 breast
HOP-92 NSCLC = tested on: HOP-92 NSCLC
HS 578T breast = tested on: HS 578T breast
OVCAR-4 ovarian = tested on: OVCAR-4 ovarian
CAKI-1 renal = tested on: CAKI-1 renal
K-562 leukemia = tested on: K-562 leukemia
SK-OV-3 ovarian = tested on: SK-OV-3 ovarian
DU-145 prostate = tested on: DU-145 prostate
NCI/ADR-RES ovarian = tested on: NCI/ADR-RES ovarian
OVCAR-3 ovarian = tested on: OVCAR-3 ovarian
SF-295 CNS = tested on: SF-295 CNS
EKVX NSCLC = tested on: EKVX NSCLC
U251 CNS = tested on: U251 CNS
SF-268 CNS = tested on: SF-268 CNS
SK-MEL-2 melanoma = tested on: SK-MEL-2 melanoma
SK-MEL-28 melanoma = tested on: SK-MEL-28 melanoma
NCI-H226 lung = tested on: NCI-H226 lung
KM12 colon = tested on: KM12 colon
A498 renal = tested on: A498 renal
SNB-19 CNS = tested on: SNB-19 CNS
HL-60(TB) leukemia = tested on: HL-60(TB) leukemia
IGROV1 ovarian = tested on: IGROV1 ovarian
ACHN renal = tested on: ACHN renal
SF-539 CNS = tested on: SF-539 CNS
SN12C renal = tested on: SN12C renal
OVCAR-8 ovarian = tested on: OVCAR-8 ovarian
SR leukemia = tested on: SR leukemia
PC-3 prostate = tested on: PC-3 prostate
TK-10 renal = tested on: TK-10 renal
MALME-3M melanoma = tested on: MALME-3M melanoma
NCI-H522 lung = tested on: NCI-H522 lung
HCT-116 colon = tested on: HCT-116 colon
M14 melanoma = tested on: M14 melanoma
MDA-MB-435 = tested on: MDA-MB-435
OVCAR-5 ovarian = tested on: OVCAR-5 ovarian
HOP-62 NSCLC = tested on: HOP-62 NSCLC
LOX IMVI melanoma = tested on: LOX IMVI melanoma
HT29 colon = tested on: HT29 colon
SK-MEL-5 melanoma = tested on: SK-MEL-5 melanoma
NCI-H23 lung = tested on: NCI-H23 lung
MDA-MB-231 breast = tested on: MDA-MB-231 breast
HCC-2998 colon = tested on: HCC-2998 colon
UACC-257 melanoma = tested on: UACC-257 melanoma
UO-31 renal = tested on: UO-31 renal
SNB-75 CNS = tested on: SNB-75 CNS
NCI-H460 lung = tested on: NCI-H460 lung
BT-549 breast = tested on: BT-549 breast
UACC-62 melanoma = tested on: UACC-62 melanoma

## CC(C)(O)c1cc(Nc2cc(Oc3cn(C4CC4)nc3C3CCOCC3)ccn2)ccn1
786-0 renal
  GI50: 53.1 µM
  TGI: > 100 µM
T-47D breast
  GI50: 23.6 µM
  TGI: > 100 µM
MOLT-4 leukemia
  GI50: 91.7 µM
  TGI: > 100 µM
HCT-15 colon
  GI50: > 100 µM
  TGI: > 100 µM
CCRF-CEM leukemia
  GI50: > 100 µM
  TGI: > 100 µM
SW-620 colon
  GI50: > 100 µM
  TGI: > 100 µM
COLO 205 colon
  GI50: 60.9 µM
  TGI: > 100 µM
A549 NSCLC
  GI50: > 100 µM
  TGI: > 100 µM
RXF 393 renal
  GI50: 68.4 µM
  TGI: > 100 µM
RPMI-8226 leukemia
  GI50: 33.7 µM
  TGI: > 100 µM
MCF7 breast
  GI50: 35.3 µM
  TGI: > 100 µM
HOP-92 NSCLC
  GI50: 21.3 µM
  TGI: > 100 µM
HS 578T breast
  GI50: 73.8 µM
  TGI: > 100 µM
OVCAR-4 ovarian
  GI50: > 100 µM
  TGI: > 100 µM
CAKI-1 renal
  GI50: > 100 µM
  TGI: > 100 µM
K-562 leukemia
  GI50: 27.5 µM
  TGI: > 100 µM
SK-OV-3 ovarian
  GI50: > 100 µM
  TGI: > 100 µM
DU-145 prostate
  GI50: > 100 µM
  TGI: > 100 µM
NCI/ADR-RES ovarian
  GI50: > 100 µM
  TGI: > 100 µM
OVCAR-3 ovarian
  GI50: 98.1 µM
  TGI: > 100 µM
SF-295 CNS
  GI50: 64.3 µM
  TGI: > 100 µM
EKVX NSCLC
  GI50: > 100 µM
  TGI: > 100 µM
U251 CNS
  GI50: > 100 µM
  TGI: > 100 µM
SF-268 CNS
  GI50: > 100 µM
  TGI: > 100 µM
SK-MEL-2 melanoma
  GI50: > 100 µM
  TGI: > 100 µM
SK-MEL-28 melanoma
  GI50: > 100 µM
  TGI: > 100 µM
NCI-H226 lung
  GI50: > 100 µM
  TGI: > 100 µM
KM12 colon
  GI50: > 100 µM
  TGI: > 100 µM
A498 renal
  GI50: 63.1 µM
  TGI: > 100 µM
SNB-19 CNS
  GI50: > 100 µM
  TGI: > 100 µM
HL-60(TB) leukemia
  GI50: 27.6 µM
  TGI: > 100 µM
IGROV1 ovarian
  GI50: 62.4 µM
  TGI: > 100 µM
ACHN renal
  GI50: > 100 µM
  TGI: > 100 µM
SF-539 CNS
  GI50: > 100 µM
  TGI: > 100 µM
SN12C renal
  GI50: > 100 µM
  TGI: > 100 µM
OVCAR-8 ovarian
  GI50: > 100 µM
  TGI: > 100 µM
SR leukemia
  GI50: > 100 µM
  TGI: > 100 µM
PC-3 prostate
  GI50: 88.1 µM
  TGI: > 100 µM
TK-10 renal
  GI50: 69.8 µM
  TGI: > 100 µM
MALME-3M melanoma
  GI50: > 100 µM
  TGI: > 100 µM
NCI-H522 lung
  GI50: 52.2 µM
  TGI: > 100 µM
HCT-116 colon
  GI50: 36.2 µM
  TGI: > 100 µM
M14 melanoma
  GI50: 89.1 µM
  TGI: > 100 µM
MDA-MB-435
  GI50: > 100 µM
  TGI: > 100 µM
OVCAR-5 ovarian
  GI50: > 100 µM
  TGI: > 100 µM
HOP-62 NSCLC
  GI50: > 100 µM
  TGI: > 100 µM
LOX IMVI melanoma
  GI50: 35.1 µM
  TGI: > 100 µM
HT29 colon
  GI50: 68 µM
  TGI: > 100 µM
SK-MEL-5 melanoma
  GI50: 38.7 µM
  TGI: > 100 µM
NCI-H23 lung
  GI50: 34.8 µM
  TGI: > 100 µM
MDA-MB-231 breast
  GI50: 65 µM
  TGI: > 100 µM
HCC-2998 colon
  GI50: > 100 µM
  TGI: > 100 µM
UACC-257 melanoma
  GI50: 85.1 µM
  TGI: > 100 µM
UO-31 renal
  GI50: 54 µM
  TGI: > 100 µM
SNB-75 CNS
  GI50: 22 µM
  TGI: > 100 µM
NCI-H460 lung
  GI50: > 100 µM
  TGI: > 100 µM
BT-549 breast
  GI50: 56.7 µM
  TGI: > 100 µM

## COC1OC(C)/C(=N/O)C2OC(C)(C)OC12 (stereo not given)
786-0 renal
  TGI: > 100 µM
T-47D breast
  TGI: > 100 µM
MOLT-4 leukemia
  TGI: > 100 µM
HCT-15 colon
  TGI: > 100 µM
CCRF-CEM leukemia
  TGI: > 100 µM
SW-620 colon
  TGI: > 100 µM
COLO 205 colon
  TGI: > 100 µM
A549 NSCLC
  TGI: > 100 µM
RXF 393 renal
  TGI: > 100 µM
RPMI-8226 leukemia
  TGI: > 100 µM
MCF7 breast
  TGI: > 100 µM
UACC-62 melanoma
  TGI: > 100 µM
HOP-92 NSCLC
  TGI: > 100 µM
HS 578T breast
  TGI: > 100 µM
OVCAR-4 ovarian
  TGI: > 100 µM
CAKI-1 renal
  TGI: > 100 µM
K-562 leukemia
  TGI: > 100 µM
SK-OV-3 ovarian
  TGI: > 100 µM
DU-145 prostate
  TGI: > 100 µM
NCI/ADR-RES ovarian
  TGI: > 100 µM
OVCAR-3 ovarian
  TGI: > 100 µM
SF-295 CNS
  TGI: > 100 µM
EKVX NSCLC
  TGI: > 100 µM
U251 CNS
  TGI: > 100 µM
SF-268 CNS
  TGI: > 100 µM
SK-MEL-28 melanoma
  TGI: > 100 µM
NCI-H226 lung
  TGI: > 100 µM
KM12 colon
  TGI: > 100 µM
A498 renal
  TGI: > 100 µM
SNB-19 CNS
  TGI: > 100 µM
HL-60(TB) leukemia
  TGI: > 100 µM
IGROV1 ovarian
  TGI: > 100 µM
ACHN renal
  TGI: > 100 µM
SF-539 CNS
  TGI: > 100 µM
SN12C renal
  TGI: > 100 µM
OVCAR-8 ovarian
  TGI: > 100 µM
SR leukemia
  TGI: > 100 µM
PC-3 prostate
  TGI: > 100 µM
TK-10 renal
  TGI: > 100 µM
MALME-3M melanoma
  TGI: > 100 µM
NCI-H522 lung
  TGI: > 100 µM
HCT-116 colon
  TGI: > 100 µM
M14 melanoma
  TGI: > 100 µM
MDA-MB-435
  TGI: > 100 µM
OVCAR-5 ovarian
  TGI: > 100 µM
HOP-62 NSCLC
  TGI: > 100 µM
LOX IMVI melanoma
  TGI: > 100 µM
HT29 colon
  TGI: > 100 µM
SK-MEL-5 melanoma
  TGI: > 100 µM
NCI-H23 lung
  TGI: > 100 µM
MDA-MB-231 breast
  TGI: > 100 µM
HCC-2998 colon
  TGI: > 100 µM
UACC-257 melanoma
  TGI: > 100 µM
UO-31 renal
  TGI: > 100 µM
NCI-H460 lung
  TGI: > 100 µM
BT-549 breast
  TGI: > 100 µM
